Measurements: patent US20240424175A1, “ANTICOAGULANT COMPOUNDS COMPRISING CHELATING AGENTS AND CATIONIC ANTI-COAGULATION ENHANCERS AND METHODS AND DEVICES FOR THEIR USE” (Elixir Medical Corporation, priority 2021, published 2024)

What was measured:
[1] = pH of 1 mg/ml EDTA or analogue in water or phosphate buffer; assay type: physicochemical
[2] = test system: Tissue factor generated antiplatelet; details: cited from earlier work; for IC50 for Tissue factor generated antiplatelet: expressed in ng/mg
[3] = test system: porcine coronary artery model; assay: Fibrin score, histopathology of stented arteries in porcine coronary artery model (Examples 16, 17); assay type: in vivo; details: 14 mm stents, n = 3; score 0 to 3, smaller is better; bare metal control stent 1.02 ± 0.35
Procedure: The drug eluting stent systems containing different anticoagulants prepared as described in Example 11 were evaluated at 3 hours, 6 hours, 1 day, 3 days, 6 days, 7 days, or 28 days following implantation in a porcine coronary artery model.
After induction of anesthesia, the left or right femoral artery was accessed using standard techniques and an arterial sheath was introduced and advanced into the artery. Vessel angiography was performed under fluoroscopic guidance, a 7 Fr, guide catheter was inserted through the sheath and advanced to the appropriate location where intracoronary nitroglycerin was administered. An appropriate implantation segment of coronary artery was randomly selected and a 0.014″ guidewire inserted. Quantitative Coronary Angiography (QCA) was performed to document the results. The appropriately size stent was advanced to the deployment site. The balloon was inflated at a steady rate to a pressure sufficient to achieve a balloon to artery ratio of approximately 1.1 to 1.0.
Stented portions of coronary arteries were embedded in methyl methacrylate (MMA), then divided into a target of at least three blocks of approximately similar lengths for histology evaluation. Quantitative histopathological evaluation of stented artery sections was then performed and scored as indicated. For Fibrin formation, scores ranged from 0 to 3, with a score of 0 indicating absent or rare minimal spotting around struts of the stent, a score of 1 indicating the presence of fibrin in small amounts localized only around the struts, a score of 2 indicating the moderately abundant or denser presence of fibrin around and extending beyond the struts, and a score of 3 indicating the presence of abundant and dense fibrin and/or bridging of the fibrin between the struts. The mean score was calculated and reported. The mean of each section was then averaged to provide a mean fibrin score per stent. The smaller the fibrin score, the better efficacy.

[4] = test system: porcine coronary artery model; assay: Late lumen loss (LLL) by follow up angiography in porcine coronary artery model (Example 16); assay type: in vivo; details: 14 mm stents, n = 3; smaller is better; bare metal control stent 0.17 ± 0.22
fresh pig blood = assay: Activated clotting time (ACT) of EDTA or analogues in fresh pig blood (Example 3); assay type: biochemical; details: for Clotting time: blood control 154
Procedure: The ACT measurements were made in fresh pig blood. 1.0 ml of fresh pig blood was added to a test tube containing an activator (Hemochron@Celite@ ACT tubes, Lot F8FTE026 from Accriva Diagnostics, Inc.). A target amount of drug solution was then added into the test tube. The test tube was gently swirled so that the blood and drug was well-mixed. 0.1 ml of 0.3M calcium chloride was then added. The tube was gently shaken before being inserted into the Hemochron Response detector. The ACT read out was recorded and reported. The ACT of the control blood in the absence of any drug as first determined to establish a baseline.

[5] = test system: Human Aortic SMC (HAoSMC, ATCC, PCS-100-012); assay: HAoSMC cell proliferation assay (CellTiter Aqueous, 96-well); assay type: cell-based; details: drug alone, various concentrations; 72 hours; FIGS. 1D-1E
Procedure: Cell proliferation assay was done in 96-well format. Low passage cells were trypsinized and seeded in 96 well plates at a density of ˜4000 cells/well. The cells are allowed to attach overnight in a CO2 incubator. Next day, the medium was removed and replaced with fresh complete medium containing various concentrations of the test compounds. The final concentration of vehicle (DMSO) in the test medium was 0.1%. After adding test compounds, the cells were incubated for 72 hours. Following this period, the medium was removed and then added fresh medium (100 μl) containing CellTiter Aqueous (1× concentration final) to the wells and incubated for 2 hours in the CO2 incubator. At the end of incubation measured fluorescence with a plate-reader. Controlled incubations with untreated cells and blank incubations containing only medium were included and tested similarly. Based on the cell viability assay the percentage inhibition of the cell proliferation was determined at the different concentrations of the drug tested.
Following the cell proliferation assay as indicated earlier, the percent cell proliferation inhibition was determined, and the assay results plotted to determine the IC50.

[6] = In vivo drug release, drug remaining on stent and tissue drug concentration of SS7-SS17 stents (Tables 12A-12D); details: 28 D following implantation
Text: The stented artery was cut longitudinally with surgical scissors. The stents were separated from the tissue.

citrated sheep blood [7] = assay: Activated clotting time (ACT) in calcium-reconstituted citrated sheep blood, Hemochron Response (Example 2); assay type: biochemical; details: individual drug at 0.6 ng/mg; FIG. 2C
Procedure: The activated clotting time (ACT) evaluation of anticoagulants was performed in calcium-reconstituted sheep blood and recorded employing the Hemochron® Response device. […] A target amount of drug solution was then added into the test tube. […] The tube was gently shaken before being inserted into the Hemochron Response detector. The ACT read out was recorded and reported. The ACT of the control blood in the absence of any drug as first determined to establish a baseline. Then ACT was determined in the presence of different concentrations of the drug as a single component. Selected drug combinations were then tested to evaluate for potential synergy in action between the two drugs.

citrated sheep blood [8] = assay: Activated clotting time (ACT) of EDTA or other anti-coagulant compounds in citrated sheep blood (Example 4); assay type: biochemical
Procedure: The activated clotting time (ACT) evaluation of anticoagulants was performed in Calcium-reconstituted sheep blood and recorded employing the Hemochron® Response device. […] A target amount of EDTA or other anti-coagulant compounds solution was then added into the test tube. […] The tube was gently shaken before being inserted into the Hemochron Response detector. The ACT read out was recorded and reported.

[9] = 1 mg/ml in 0.01M pH 7.4 phosphate buffer, 21.8-22.3 °C
[10] = final drug concentration 500 ng/mg
[11] = final drug concentration 100 ng/mg
[12] = final drug concentration 200 ng/mg
[13] = final drug concentration 250 ng/mg
[14] = final drug concentration 300 ng/mg
[15] = final drug concentration 75 ng/mg
[16] = final drug concentration 150 ng/mg
[17] = final concentration 67 ng/mg (66.7 μg/ml)
[18] = final concentration 100 ng/mg (100 μg/ml)
[19] = final concentration […] (133.3 μg/ml)
[20] = final concentration […] (166.7 μg/ml)

## O=C([O-])CN(CCN(CC(=O)O)CC(=O)O)CC(=O)[O-].[K+].[K+] [EDTA dipotasium]
[1]; [9]
  pH: 6.93
[1]; 1 mg/ml in d-water, 21.8-22 °C
  pH: 6.25

## O=C([O-])CN(CCN(CC(=O)[O-])CC(=O)O)CC(=O)[O-].[Na+].[Na+].[Na+] [EDTA tri sodium, trisodium edetate]
[1]; [9]
  pH: 7.77
[1]; 1 mg/ml in d-water, 21.8-22 °C
  pH: 9.21

## O=C(NC[C@H]1CN(c2ccc(N3CCOCC3=O)cc2)C(=O)O1)c1ccc(Cl)s1 [Rivaroxaban]
[2]
  IC50: 312 nM
  IC50 for Tissue factor generated antiplatelet: 0.136 ng/mg
[3]
  Fibrin score at day 7: effective at inhibiting fibrin formation
[4]
  LLL at day 7: not effective at inhibiting smooth muscle cell proliferation

## CC(=O)OCOC(=O)CN(CCN(CC(=O)OCOC(C)=O)CC(=O)OCOC(C)=O)CC(=O)OCOC(C)=O [EDTA tetra acetoxymethyl ester, tetra acetoxymethyl ester EDTA]
Fresh pig blood; [10]
  Increase in clotting time compared to control: 4 s
  Clotting time: 158 s

## Dalteparin
[3]
  Fibrin score at day 7: not effective at inhibiting fibrin formation
[4]
  LLL at day 7: not effective at inhibiting smooth muscle cell proliferation

## O=C([O-])CN(CCN(CC(=O)[O-])CC(=O)[O-])CC(=O)[O-].[Na+].[Na+].[Na+].[Na+] [EDTA•4Na•xH2O, tetrasodium edetate]
[1]; [9]
  pH: 8.27
[1]; 1 mg/ml in d-water, 21.8-22 °C
  pH: 9.61
Fresh pig blood; [11]
  Increase in clotting time compared to control: 50 s
  Clotting time: 204 s
Fresh pig blood; [12]
  Increase in clotting time compared to control: 121 s
  Clotting time: 275 s
Fresh pig blood; [13]
  Increase in clotting time compared to control: 175 s
  Clotting time: 329 s
Fresh pig blood; [14]
  Increase in clotting time compared to control: >346 s
  Clotting time: >500 s
Fresh pig blood; final drug concentration 300 ng/mg, blood control 154, listed as EDTA tetra sodium salt
  Clotting time (sec): same trend

## O=C(O)C(S)C(S)C(=O)O (stereo not shown) [Dimercaptosuccinic acid(DMSA), dimercaptosuccinic acid]
Fresh pig blood; [12]
  Increase in clotting time compared to control: -3 s
  Clotting time: 151 s

## O=C(O)CN(CCN(CC(=O)O)CC(=O)O)CC(=O)O [EDTA, ethylenediaminetetraacetic acid]
Fresh pig blood; [15]
  Increase in clotting time compared to control: 25 s
  Clotting time: 179 s
Fresh pig blood; [11]
  Increase in clotting time compared to control: 93 s
  Clotting time: 247 s
Fresh pig blood; [16]
  Increase in clotting time compared to control: 121 s
  Clotting time: 275 s
Fresh pig blood; [12]
  Increase in clotting time compared to control: >346 s

## CC1CNc2c(cccc2S(=O)(=O)N[C@@H](CCCNC(=N)N)C(=O)N2CC[C@@H](C)C[C@@H]2C(=O)O)C1 (stereo partly shown) [Argatroban]
[5]
  inhibition of HAoSMC proliferation: small to no inhibition
[6]
  Tissue drug concentration (ng/mg) in the stented segment tissue, Argatroban: about 1.69 ng/mg
[2]
  IC50: 79 nM
  IC50 for Tissue factor generated antiplatelet: 0.04 ng/mg
[3]
  Fibrin score at day 7: not effective at inhibiting fibrin formation
[4]
  LLL at day 7: not effective at inhibiting smooth muscle cell proliferation
Citrated sheep blood [7]
  ACT: 301

## O=C([O-])CN(CCN(CC(=O)[O-])CC(=O)O)CC(=O)O.[Na+].[Na+] [EDTA•2Na•2H2O, disodium edetate]
[1]; [9]
  pH: 6.92
[1]; 1 mg/ml in d-water, 21.8-22 °C
  pH: 6.42
Fresh pig blood; [11]
  Increase in clotting time compared to control: 37 s
  Clotting time: 191 s
Fresh pig blood; [12]
  Increase in clotting time compared to control: 110 s
  Clotting time: 264 s
Fresh pig blood; [14]
  Increase in clotting time compared to control: 220 s
  Clotting time: 374 s
Fresh pig blood; final drug concentration 300 ng/mg, blood control 154, listed as EDTA disodium salt
  Clotting time (sec): same trend

## CCCCCCCCCCCCCC[N+](C)(C)Cc1ccccc1.[Cl-] [Benzyldimethyltetradecylammonium chloride]
Citrated sheep blood [8]; [17]
  Clotting time: 316 s
  Increase in clotting time compared to control: 114 s
Citrated sheep blood [8]; [18]
  Clotting time: 421 s
  Increase in clotting time compared to control: 219 s
Citrated sheep blood [8]; [19]
  Clotting time: 983 s
  Increase in clotting time compared to control: 781 s
Citrated sheep blood [8]; [20]
  Clotting time: 1370 s
  Increase in clotting time compared to control: 1168 s

## COc1ccc(-n2nc(C(N)=O)c3c2C(=O)N(c2ccc(N4CCCCC4=O)cc2)CC3)cc1 [Apixaban]
[5]
  inhibition of HAoSMC proliferation: small to no inhibition
Citrated sheep blood [7]
  ACT: 522
